Results from paper PMC13242511, “Disrupting Notch signalling by a small molecule inhibiting dihydroorotate dehydrogenase activity” (Scientific Reports, 2026).
Where two headings read alike, the source gives them in different places.

Tests used:
[1] = biological target: γ-secretase complex (Homo sapiens, UniProt P49768); assay: APP-C99 counter assay (GSI reporter assay); type: cell-based; design: AUC APP: scale not given here; settings: for remaining activity at 10 µM / remaining activity at 25 µM / remaining activity at […] / activity at 10 µM: 24 h; for remaining activity at 10 µM / remaining activity at 25 µM / remaining activity at […]: APP-C99 counter assay, read-out: 3p-DR in % of DMSO counter; for remaining activity at […]: 1,25µM; for AUC APP: area under the 14-point dose-response curve, replicates averaged; for AUC 9p APP-counter assay / AUC. 14p APP-counter assay: AUCs averaged when replicates available; for APP assay: overview in comparison to compound C, Supplemental Fig. 9; for activity at 10 µM: sheet conf vs counter 10 µM, read-out: Counter screen (Hek APP-C99)
Summary of the method: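 Cells transfected with APP-C99 firefly luciferase reporter plus renilla normalization plasmid, seeded 24 h later onto compound plates and cultured 24 h. Dual luciferase read in triplicate per concentration; IC50 from variable-slope log(inhibitor) fit, with AUC also calculated from dose–response curves.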

[2] = tested on: Notch downstream genes in tumour cell lines; assay: Three dose response gene expression analysis (qRT-PCR), panel of cell lines; type: cell-based; design: key to gene expression: + indicates that the compound had an effect; -: − indicates that there was no significant effect in the respective assay; settings: for gene expression: summary Fig. 8E; for Notch targets: overview in comparison to compound C, Supplemental Fig. 9
Protocol: Total RNA from cell lines was isolated using the RNeasy Mini kit (cat #74104, Qiagen), according to the manufacturer’s instructions. qRT-PCR was performed as described elsewhere[51] with some minor modifications: RNA was reverse transcribed to cDNA using iScript Reverse Transcription Supermix (cat # 1708841, Bio-rad). cDNA was then diluted 1:5 in nuclease free H20. qRT-PCR was performed on a C1000 Touch thermal cycler (Bio-rad) and gene expression was detected with SsoAdvanced Universal SYBR Green Supermix (cat # 1725274, Bio-rad). Gene expression was determined by normalizing to GAPDH mRNA expression levels and fold expression change was calculated using the ΔΔCT method (ΔΔCT = ΔCt sample − Δct control). Primers used in qPCR are shown in Supplemental Table 9.
Adherent breast cancer cells were seeded in 24-well cell culture plates (ThermoFisher, Nunc, Delta surface, cat #144530) and T-ALL cells growing in suspension (Jurkat, RPMI-8402) were seeded in non-adherent 24-well plates (ThermoFisher, Nunc, cat […]). 60.000 cells were seeded and treated with 0.1, 1 and 10 µM of each compound. […] Cells were harvested 24 h post treatment and RNA isolation and gene expression analysis (qRT-PCR) was performed as described above.

[3] = 14p APP assay DR, Notch inhibitor controls, no bottom constraint named
[4] = 14p APP assay DR, bottom constrained to Emax of positive control LY-411575

Row | remaining activity at 10 µM [1] [%] | remaining activity at 25 µM [1] [%] | remaining activity at […] [1] [%] | AUC APP [1] | Hill-Slope 9p APP counter assay averaged ([1]; 9p dose response) | AUC 9p APP-counter assay ([1]; 9p dose response) | AUC. 14p APP-counter assay ([1]; 14p dose response) | APP assay [1] | Hill-slope [1, 4] | SMILES | gene expression [2] | Notch targets [2] | further results
1 | 119 | 134 | 78 | 449.6 |  |  |  |  |  | NC(=O)c1c(NC(=O)NCc2cccnc2)sc2c1CCC2 [compound D] | + |  | Hill-slope ([1]; 14p APP assay DR, bottom constrained to Emax of positive control LY-411575, listed as CBK307578): 0.0595
2 |  |  |  | 548.4 | -2.0 | 3.16E+02 | 5.48E+02 | weak potency |  | CC(C)(C)c1ccc(Oc2ccc(N)cn2)cc1 [CB-103, reference compound] |  | condition dependent | curve fit information [1, 3]: IC50 indeterminate
3 | 71.4 | 62.2 | 75.7 | 658.8 |  |  |  |  | -1.6 | CCc1c(C(=O)N(C)Cc2cnn(C(C)C)c2)[nH]c2ccccc12 [compound A] | - |  | effect in the APP assay ([1]; 14-point dose-response, Supplemental Fig. 4J): showed an inhibitory effect at high concentrations; Hill-slope ([1]; 14p APP assay DR, bottom constrained to Emax of positive control CB-103): -1.6; activity at 10 µM [1]: 71.3%
4 |  |  |  | 527.4 | -1.5 | 2.88E+02 | 5.27E+02 | higher potency |  | CC(C)(C(=O)NCC(F)(F)C(F)(F)F)C(=O)N[C@@H]1C(=O)Nc2ccccc2-c2ccccc21 [RO4929097, reference compound] |  | condition dependent | HES1 and HES4 target gene expression ([2]; across the panel of cell lines): consistently reduced
5 | 80.7 | 81.7 | 83.7 | 684.1 |  |  |  |  | -0.00246 | Cc1nn(-c2nc3ccccc3s2)c(O)c1C1OC(=O)c2ccccc21 (stereo not shown) [compound E] | + |  | 
6 | 150 | 152 | 157 | 731.3 |  |  |  |  | 0.0377 | COc1cccc(CNc2ccc(N3CCCCC3)cc2)c1OCc1cccs1 [compound C] | + | condition dependent | activity at 10 µM [1]: 150%

Row | SMILES | remaining activity at 10 µM [1] [%] | remaining activity at 25 µM [1] [%] | remaining activity at […] [1] [%] | AUC APP [1] | Hill-Slope 9p APP counter assay averaged ([1]; 9p dose response) | AUC 9p APP-counter assay ([1]; 9p dose response) | AUC. 14p APP-counter assay ([1]; 14p dose response) | APP assay [1] | Hill-slope [1, 4] | gene expression [2] | Notch targets [2] | further results
7 | Cc1ccc2[nH]c3c(c2c1)CCOC31CCN(Cc2ccccc2-c2ccccc2)CC1 [compound B] | 113 | 149 | 100 | 643.8 |  |  |  |  |  | + |  | 
8 | C[C@H](NC(=O)Cc1cc(F)cc(F)c1)C(=O)N[C@H](C(=O)OC(C)(C)C)c1ccccc1 [DAPT, reference compound] |  |  |  | 580.4 | -2.8 | 3.64E+02 | 5.80E+02 | higher potency |  |  |  | IC50 ([1]; 9p dose response, averaged, read-out: 9p APP counter assay averaged IC50s): 2.5 µM; 9p APP counter assay averaged IC50s (log) ([1]; 9p dose response, log10 of averaged IC50): -5.6; IC50 ([1]; 9p dose response, read-out: approximated IC50s 9p APP counter assay): 2.5 µM; IC50 ([1]; 14-point, unit inferred, some fits outside of tested concentration range, read-out: approximated IC50s 14p APP-counter assay): 0.4 µM; curve fit information [1, 3]: IC50 indeterminate; IC50 ([1]; 14p APP assay DR, Notch inhibitor controls, no bottom constraint named, read-out: approximated IC50): 5.2 µM; IC50 ([1]; 14p dose response, single replicates, read-out: approximated IC50s 14p APP counter assay averaged): 5.2 µM; IC50 ([1]; 14p dose response, averaged over replicates, read-out: 14p APP counter assay averaged IC50s): 5.2 µM
